Assay results reported in patent US20260042731A1, “(2,4-DICHLOROPHENOXY)ACETIC ACID ANALOGS” (CORTEVA AGRISCIENCE LLC, priority 2022, published 2026).
Like-named read-outs stand apart in the source and are kept apart here.

Assays:
[1] = system: Amaranthus rudis (AMATA), tall water hemp; assay: Postemergence herbicide evaluation, growth of Amaranthus rudis (AMATA); type: in vivo; conditions: Amaranthus tuberculatus, post-emergence, read-out: Ave. AMATA, percent reduction in plant size relative to the untreated control; for pest or weed control at 280 g/ha: 280 g ae/ha; for pest or weed control at 560 g/ha: 560 g ae/ha
[2] = system: Ambrosia artemisiifolia (AMBEL), common ragweed; assay: Postemergence herbicide evaluation, growth of Ambrosia artemisiifolia (AMBEL); type: in vivo; conditions: Ambrosia artemisiifolia, post-emergence, read-out: AVE. AMBEL, percent reduction in plant size relative to the untreated control; for pest or weed control at 280 g/ha: 280 g ae/ha; for pest or weed control at 560 g/ha: 560 g ae/ha
[3] = system: Abutilon theophrasti (ABUTH), velvetleaf; assay: Postemergence herbicide evaluation, growth of Abutilon theophrasti (ABUTH); type: in vivo; conditions: Abutilon theophrasti, post-emergence, read-out: AVE. ABUTH, percent reduction in plant size relative to the untreated control; for pest or weed control at 280 g/ha: 280 g ae/ha; for pest or weed control at 560 g/ha: 560 g ae/ha
[4] = system: Chenopodium album (CHEAL), common lambsquarters; assay: Postemergence herbicide evaluation, growth of Chenopodium album (CHEAL); type: in vivo; conditions: Chenopodium album, post-emergence, read-out: Ave. CHEAL, percent reduction in plant size relative to the untreated control; for pest or weed control at 280 g/ha: 280 g ae/ha; for pest or weed control at 560 g/ha: 560 g ae/ha
[5] = system: glyphosate resistant Conyza canadensis (L.) (ERICA), horseweed; assay: Postemergence herbicide evaluation, growth of Conyza canadensis (ERICA); type: in vivo; conditions: Erigeron canadensis, post-emergence, read-out: Ave. ERICA, percent reduction in plant size relative to the untreated control; for pest or weed control at 280 g/ha: 280 g ae/ha; for pest or weed control at 560 g/ha: 560 g ae/ha
[6] = Volatility of compounds measured by thermogravimetric analysis (TGA); type: physicochemical
[7] = system: weeds ABUTH, AMATA, AMBEL, CHEAL, ERICA; assay: Postemergence herbicide evaluation, overall average % weed control (ABUTH, AMATA, AMBEL, CHEAL, ERICA); type: in vivo; conditions: post-emergence, read-out: Overall Ave % Weed Control; for pest or weed control at 280 g/ha: 280 g ae/ha; for pest or weed control at 560 g/ha: 560 g ae/ha
[8] = system: Glycine max (Enlist E3 traited soybeans, GLXMA); conditions: Enlist E3 soybeans
[9] = system: ABUTH, AMATA, AMBEL, CHEAL, ERICA weeds; assay: Postemergence herbicide evaluation, overall average % weed control across ABUTH, AMATA, AMBEL, CHEAL, ERICA; type: in vivo
Text: For example, the pesticidal activity may include herbicidal activity.

## C[N+](C)(C)CCOC(=O)COc1ccc(Cl)cc1Cl.[Cl-] [Compound E3, 2-(2-(2,4-Dichlorophenoxy)acetoxy)-N, N, N-trimethylethanaminium chloride]
[1]; 168 h, 7 DAA
  pest or weed control at 280 g/ha: 78%
  pest or weed control at 560 g/ha: 78%
[1]; 336 h, 14 DAA
  pest or weed control at 280 g/ha: 78%
  pest or weed control at 560 g/ha: 85%
[1]; 504 h, 21 DAA
  pest or weed control at 280 g/ha: 75%
  pest or weed control at 560 g/ha: 83%
[2]; 168 h, 7 DAA
  pest or weed control at 280 g/ha: 63%
  pest or weed control at 560 g/ha: 75%
[2]; 336 h, 14 DAA
  pest or weed control at 280 g/ha: 89%
  pest or weed control at 560 g/ha: 93%
[2]; 504 h, 21 DAA
  pest or weed control at 280 g/ha: 95%
  pest or weed control at 560 g/ha: 98%
[3]; 168 h, 7 DAA
  pest or weed control at 280 g/ha: 75%
  pest or weed control at 560 g/ha: 83%
[3]; 336 h, 14 DAA
  pest or weed control at 280 g/ha: 78%
  pest or weed control at 560 g/ha: 93%
[3]; 504 h, 21 DAA
  pest or weed control at 280 g/ha: 86%
  pest or weed control at 560 g/ha: 97%
[4]; 168 h, 7 DAA
  pest or weed control at 280 g/ha: 68%
  pest or weed control at 560 g/ha: 70%
[4]; 336 h, 14 DAA
  pest or weed control at 280 g/ha: 78%
  pest or weed control at 560 g/ha: 73%
[4]; 504 h, 21 DAA
  pest or weed control at 280 g/ha: 80%
  pest or weed control at 560 g/ha: 77%
[5]; 168 h, 7 DAA
  pest or weed control at 280 g/ha: 73%
  pest or weed control at 560 g/ha: 78%
[5]; 336 h, 14 DAA
  pest or weed control at 280 g/ha: 83%
  pest or weed control at 560 g/ha: 88%
[5]; 504 h, 21 DAA
  pest or weed control at 280 g/ha: 95%
  pest or weed control at 560 g/ha: 93%
[6]
  TGA Data (rate of weight loss, volatility): 2.4 µg/min
[7]; 168 h, 7 DAA
  pest or weed control at 280 g/ha: 71%
  pest or weed control at 560 g/ha: 77%
[7]; 336 h, 14 DAA
  pest or weed control at 280 g/ha: 81%
  pest or weed control at 560 g/ha: 86%
[7]; 504 h, 21 DAA
  pest or weed control at 280 g/ha: 86%
  pest or weed control at 560 g/ha: 89%
[8]; 280 g ae/ha, 7 DAA
  AVE. GLXMA, percent reduction in plant size relative to the untreated control: 0%
[8]; 280 g ae/ha, 14 DAA
  AVE. GLXMA, percent reduction in plant size relative to the untreated control: 0%
[8]; 280 g ae/ha, 21 DAA
  AVE. GLXMA, percent reduction in plant size relative to the untreated control: 3%
[8]; 560 g ae/ha, 7 DAA
  AVE. GLXMA, percent reduction in plant size relative to the untreated control: 0%
[8]; 560 g ae/ha, 14 DAA
  AVE. GLXMA, percent reduction in plant size relative to the untreated control: 0%
[8]; 560 g ae/ha, 21 DAA
  AVE. GLXMA, percent reduction in plant size relative to the untreated control: 0%

## CN(NC(=O)COc1ccc(Cl)cc1Cl)c1ccccc1 [Compound D11, 2-(2,4-Dichlorophenoxy)-N′-methyl-N′-phenylacetohydrazide]
[6]
  TGA Data (rate of weight loss, volatility): 0.06 µg/min
[9]; 280 g ae/ha, 7 DAA
  Overall Ave % Weed Control: 63%
[9]; 280 g ae/ha, 14 DAA
  Overall Ave % Weed Control: 76%
[9]; 280 g ae/ha, 21 DAA
  Overall Ave % Weed Control: 80%
[9]; 560 g ae/ha, 7 DAA
  Overall Ave % Weed Control: 69%
[9]; 560 g ae/ha, 14 DAA
  Overall Ave % Weed Control: 82%
[9]; 560 g ae/ha, 21 DAA
  Overall Ave % Weed Control: 89%
